# According to patent US20140228315A1, “BLOCKADE OF EOSINOPHIL PRODUCTION BY TOLL-LIKE RECEPTORS” (CHILDREN'S HOSPITAL MEDICAL CENTER, priority 2011, published 2014):
# B1: IL-10: cytokine added at 2 ng/ml to IL-5-containing medium (protein, UniProt P22301 19-178, looked up)
# Interleukin-10: SPGQGTQSENSCTHFPGNLPNMLRDLRDAFSRVKTFFQMKDQLDNLLLKESLLEDFKGYLGCQALSEMIQFYLEEVMPQAENQDPDIKAHVNSLGENLKTLRLRLRRCHRFLPCENKSKAVEQVKNAFNKLQEKGIYKAMSEFDIFINYIEAYMTMKIRN
# Tested on: developing eosinophils (eosinophil progenitors, EoPs) from LDBM cells
# Experiment: Murine eosinophil liquid culture (LDBM cells, IL-5): eosinophil yield after TLR ligand or cytokine exposure
# Format: cell-based, mouse
# Settings: cytokines added with IL-5 from Day 8 for the final 6 days of culture
# Description: The femurs and tibiae of mice were crushed in a sterile mortar and pestle containing 1×PBS with 2% FBS, and cells were collected by filtration through a 70-μm strainer. Red blood cells were lysed using RBC lysis buffer (Sigma, St. Louis, Mo.), and the remaining cells were subjected to centrifugation at 1700 rpm for 30 minutes on a Histopaque 1083 (Sigma) gradient. LDBM cells were aspirated from the interface, washed twice with 1× PBS and cultured at 0.8-1×10^6 cells per ml in 6-well plates or 24-well plates containing Complete Medium composed of Iscove's Modified Dulbecco's Medium (IMDM) with Glutamax (Gibco, Carlsbad, Calif.), 10% characterized FBS (HyClone, Hudson, N.H.), 2 mM L-glutamine (Gibco), 50 μM 2-ME (Sigma), and penicillin and streptomycin (Gibco) supplemented with 100 ng/mL stem cell factor (SCF; Peprotech, Rocky Hill, N.J.) and 100 ng/mL FLT3-ligand (FLT3L; Peprotech). On day 4, the medium in each non-centrifuged plate was replaced with fresh Complete Medium containing 10 ng/mL murine IL-5 (Peprotech). Medium with IL-5 was changed every 2 days thereafter. On Day 8, some cultures were treated with LPS from E. coli serotype O55:B5 (Sigma), ultrapure LPS from S. minnesota (InvivoGen, San Diego, Calif.), monophosphoryl lipid A from S. minnesota R595LPS (InvivoGen), synthetic lipid A from E. coli (InvivoGen), Pam2CSK4 (InvivoGen), Pam3CSK4 (InvivoGen), imiquimod (InvivoGen), CL264 (InvivoGen), or poly(I:C) (InvivoGen) at indicated doses in the presence of IL-5.
# After TLR ligand exposure for 18-24 hours, the medium was changed to Complete Medium with IL-5 at 10 ng/ml for the remaining culture period. For neutralization experiments, monoclonal anti-mouse IFN-γ (clone 37895; R&D Systems, Minneapolis, Minn.) or rat IgG2a isotype antibody was added at 0.3 μg/ml to media during LPS exposure and to Complete Medium with IL-5 thereafter. For some experiments, cytokines (IL-6 at 0.1 ng/ml, IL-10 at 2 ng/ml, IFN-γ at 0.5 ng/ml, TNF-α at 0.5 ng/ml, or the combination of all four) were added on Day 8 to IL-5-containing Complete Medium. Cells were cultured in the presence of these individual cytokines or the cytokine combination for the remainder of the culture period.
# Whole bone marrow or LDBM cells were washed twice in 1×PBS containing 1% FBS and 1 mM EDTA at a concentration of 4×10^6 cells/mL and blocked with 0.5 μg rat anti-mouse CD16/CD32 (BD Bioscience, San Diego, Calif.) for 5 minutes at 4° C. Cells were incubated with fluorescent-labeled antibodies for 30 minutes at 4° C. and then washed twice and resuspended in flow cytometry buffer. Antibodies used include rat anti-mouse CD34-FITC (BD Bioscience), rat anti-mouse TLR4-PE (Imgenex, San Diego, Calif.), rat anti-mouse Siglec-F-PE (BD Bioscience), and rat anti-mouse CCR3-FITC (R&D Systems). All flow cytometric data were acquired using a FACS Calibur or FACS Canto flow cytometer (BD Bioscience).
# FIG. 3A. A schematic of LPS exposure for eosinophil progenitors is depicted. LDBM cells were stimulated with SCF and FLT3L for 4 days and subsequently cultured with IL-5 for 4 days to initiate eosinophil differentiation. On Day 8, cultured cells were stimulated with LPS and IL-5 for 18-24 hours, after which the medium was changed, and the cells were cultured for another 6 days with IL-5 alone.
row,Molecule,number of mature eosinophils produced (eosinophil yield)
1,IFN-γ: cytokine added at 0.5 ng/ml to IL-5-containing medium,no significant effect
2,IL-6: cytokine added at 0.1 ng/ml to IL-5-containing medium,no significant effect
3,TNF-α,no significant effect
4,B1,no significant effect

# Same assay, conditions: wild-type cultures; TLR ligand exposure 18-24 hours on Day 8 in presence of IL-5, then IL-5 alone; yield at day 11-15
row,Molecule,eosinophil yield (eosinophil production)
1,CCCCNc1nc(N)c2[nH]c(=O)n(Cc3ccc(C(=O)NCC(=O)O)cc3)c2n1 [CL264],significant suppression of eosinophil yield
2,CC(C)Cn1cnc2c(N)nc3ccccc3c21 [imiquimod],significant suppression of eosinophil yield
3,Pam2CSK4,dose-dependent reduction in eosinophil yield
4,Pam3CSK4,dose-dependent reduction in eosinophil yield
5,monophosphoryl lipid A [MPLA],dose-dependent suppression of eosinophil production
6,poly(I:C),no effect on eosinophil production
7,synthetic monophosphoryl lipid A [sMPLA],significant suppression of eosinophil production at higher doses
